According to patent publication US6133302A, “5-(3-Phenyl-3-oxo-propyl)-1H-tetrazole derivatives” (Pharmacia & Upjohn SpA, priority 1997, dated 2000):

Target: T1, kynurenine-3-hydroxylase (Rattus norvegicus, UniProt O88867)
T1 construct: Rat liver mitochondrial extract was used as enzymatic preparation for this assay; from tissue; host or cells: rat liver mitochondrial extract
Assay: KYN-3-OH inhibition; kynurenine 3-hydroxylase assay based on enzymatic synthesis of tritiated water in rat liver mitochondrial extract
Type: biochemical
Conditions: 37° C., 30 min, pH 8.1, 0.025 mM L-Kynurenine, 0.8 mM NADPH
Experimental: The assay for kynurenine 3-hydroxylase is based on the enzymatic synthesis of tritiated water during the hydroxylation reaction. Radiolabeled water was quantified following selective adsorption of the isotopic substrate and its metabolite with activated charcoal.
Rat liver mitochondrial extract was used as enzymatic preparation for this assay.
The assay for kynurenine 3-hydroxylase activity was carried out at 37° C. for a time of 30 min. The reaction mixture having a total volume of […] was constituted of 44 mg of suspended extract, 100 mM Tris/Cl^- buffer pH 8.1, 10 mM EDTA, 100 mM KCl, 0.8 mM NADPH, 0.025 mM L-Kynurenine, 0.5 mCi L-(3,5-^3 H)Kynurenine (10 Ci/mmol) and […] of different concentration of inhibitor solutions. After the incubation, the reaction was terminated by adding 1 ml of 7.5% (W/v) activated charcoal, vortexed and centrifuged for 7 min.
A […] aliquot of supernatant was counted by scintillation spectroscopy in 5 ml of liquid scintillation.

T1 sequence (O88867 whole entry): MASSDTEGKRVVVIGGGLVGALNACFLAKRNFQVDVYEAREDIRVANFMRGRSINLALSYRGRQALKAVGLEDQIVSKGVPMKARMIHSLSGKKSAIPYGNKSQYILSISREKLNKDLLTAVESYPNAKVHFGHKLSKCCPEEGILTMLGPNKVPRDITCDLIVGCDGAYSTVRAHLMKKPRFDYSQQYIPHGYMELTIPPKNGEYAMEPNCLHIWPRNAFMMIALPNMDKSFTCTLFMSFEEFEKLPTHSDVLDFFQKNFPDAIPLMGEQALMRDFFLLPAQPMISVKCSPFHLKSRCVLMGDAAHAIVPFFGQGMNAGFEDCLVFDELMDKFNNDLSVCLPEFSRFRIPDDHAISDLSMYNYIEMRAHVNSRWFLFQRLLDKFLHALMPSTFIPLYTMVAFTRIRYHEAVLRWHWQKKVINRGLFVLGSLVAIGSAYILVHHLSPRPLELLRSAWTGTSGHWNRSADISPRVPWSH

O=C(CC(Cc1ccccc1)c1nnn[nH]1)c1ccc(Cl)c(Cl)c1 (stereo not shown) [PNU-168778, 5-[1-benzyl-3-(3,4-dichlorophenyl)-3-oxo-propyl]-1H-tetrazole]
IC50: 2320 nM
